Measured values reported in US8629164B2, “Inhibitors of NF-κB” (Profectus Biosciences, Inc., priority 2009, dated 2014).

What was measured:
NF-κB [1] = assay: 293-cell pNF-κB-luc reporter assay, TNF-α induced; assay type: cell-based; conditions: for EC50: HEK293 cells, NF-κB driven luciferase expression, read-out: 293/NFkB-luc EC50
In short: (§1)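 HEK293 cells with stably integrated NF-κB reporters, pNF-κB-luc (3 elements) or pTRH1-NF-κB-dscGFP (4 elements). Cells pretreated 2 h with 0–40 μM compound, then stimulated with 20 ng/ml TNF-α for 18 h; luminescence or fluorescence read. Activity referenced to 0.5% DMSO control; median of three independent experiments.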

[2] = system: PGE2 release from RAW264.7 cells; assay: PGE2 release from LPS stimulated RAW264.7 cells; assay type: cell-based, mouse; conditions: for EC50: Mus musculus, RAW264.7, RAW 264.7 cells
Procedure: (§2) Specifically, A and B show the effects of the compound of Example 1 on soluble PGE2 and Il-6 secretion from RAW264.7 cells stimulated by 1 μg/mL of LPS. The cells were treated with the indicated concentrations of the compound of Example 1 for 2 hours, and then LPS was added and incubation continued for 4 hours.
LPS stimulation induces the expression of COX-2 the enzyme responsible for prostaglandin E2.

c-Rel = biological target: T1, c-Rel (Homo sapiens, UniProt Q04864); assay: TransAM NF-κB Family DNA Binding ELISA, c-Rel; conditions: c-Rel binding IC50 (uM), cells without % sign
T1 sequence (Q04864 2-619 limits assumed): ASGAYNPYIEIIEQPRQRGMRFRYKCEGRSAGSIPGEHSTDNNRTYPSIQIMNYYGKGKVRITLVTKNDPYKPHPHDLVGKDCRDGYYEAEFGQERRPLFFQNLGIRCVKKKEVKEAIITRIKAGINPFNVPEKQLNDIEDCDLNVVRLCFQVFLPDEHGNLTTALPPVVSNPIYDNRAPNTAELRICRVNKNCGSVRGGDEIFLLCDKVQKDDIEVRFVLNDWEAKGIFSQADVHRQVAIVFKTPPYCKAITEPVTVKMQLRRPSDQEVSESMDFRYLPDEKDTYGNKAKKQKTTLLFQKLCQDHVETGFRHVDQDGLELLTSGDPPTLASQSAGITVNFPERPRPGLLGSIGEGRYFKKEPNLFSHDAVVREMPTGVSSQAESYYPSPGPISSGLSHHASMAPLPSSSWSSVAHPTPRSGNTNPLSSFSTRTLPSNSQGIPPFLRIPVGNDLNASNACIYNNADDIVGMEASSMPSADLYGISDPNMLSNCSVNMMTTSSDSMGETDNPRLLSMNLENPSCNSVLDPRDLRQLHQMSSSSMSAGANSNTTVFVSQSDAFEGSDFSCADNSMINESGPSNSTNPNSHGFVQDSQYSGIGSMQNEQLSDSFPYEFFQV
Procedure: (§3) Treated samples were then transferred to 30 μL Complete Binding Buffer (with DTT) in microplate wells pre-coated with the NF-κB consensus oligonucleotide. […] The plate was incubated for 1 hour at room temperature with gentle shaking and then washed 3 times with 200 μL 1× Wash Buffer. NF-κB p65, p50, p52, RelB, or c-Rel subunits bound to the plate were detected with 100 μL of the primary antibody (diluted 1:1000 in 1× Antibody Buffer) specific for that subunit. The plate was incubated for 1 hour at room temperature and then washed 3 times with 200 μL 1× Wash Buffer. Next, 100 μL of a HRP conjugated goat anti-rabbit antibody (diluted 1:1,000 in 1× Antibody Buffer) was added to each well. The plate was incubated for 1 hour at room temperature and then washed 4 times with 200 μL 1× Wash Buffer. 100 μL of room temperature Developing Solution was added to each well. The reaction was allowed to develop for 2-10 minutes until a medium dark blue color developed (depending on the subunit activity in the lot of extract or lot of recombinant protein used) and then the reaction was stopped with 100 μL Stop Solution yielding a yellow color. Absorbance was recorded using a Becton-Dickinson DTX 880 Multimode Detector at 450 nm with a reference wavelength subtracted at 620 nm.

p52 = biological target: T2, p52 (Homo sapiens, UniProt Q00653); assay: TransAM NF-κB Family DNA Binding ELISA, p52; conditions: p52 binding IC50 (uM), cells without % sign
T2 sequence (Q00653 1-454 limits assumed): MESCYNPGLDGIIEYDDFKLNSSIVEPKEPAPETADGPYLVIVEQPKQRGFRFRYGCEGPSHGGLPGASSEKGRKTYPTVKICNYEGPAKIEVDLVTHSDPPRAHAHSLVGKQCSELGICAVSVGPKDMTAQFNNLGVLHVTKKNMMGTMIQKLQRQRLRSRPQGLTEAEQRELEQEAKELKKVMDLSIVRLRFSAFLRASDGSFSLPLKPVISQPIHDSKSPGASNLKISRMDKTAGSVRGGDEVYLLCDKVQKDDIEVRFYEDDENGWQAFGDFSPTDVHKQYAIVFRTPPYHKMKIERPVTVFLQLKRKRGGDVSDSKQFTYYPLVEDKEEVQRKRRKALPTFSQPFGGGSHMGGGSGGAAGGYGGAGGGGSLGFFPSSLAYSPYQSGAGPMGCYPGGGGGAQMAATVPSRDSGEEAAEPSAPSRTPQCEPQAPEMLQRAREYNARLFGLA
Procedure: as §3

NF-κB [3] = assay: 293-cell pTRH1-NF-κB-dscGFP reporter assay, TNF-α induced; assay type: cell-based; conditions: for EC50: Homo sapiens, HEK293, HEK293 cells, NF-κB driven GFP expression, read-out: NF-kB/293/GFP EC50
In short: as §1

[4] = system: IL-6 release from RAW264.7 cells; assay: IL-6 release from LPS stimulated RAW264.7 cells; assay type: cell-based, mouse; conditions: for EC50: Mus musculus, RAW264.7, RAW 264.7 cells
Procedure: as §2, with “hours. […]” for “hours.”

p65 (RelA) = p65 (RelA) (Homo sapiens, UniProt Q04206); assay: TransAM NF-κB Family DNA Binding ELISA, p65; conditions: for IC50: p65 binding IC50 (uM), binding to NF-κB sites
Sequence of p65 (RelA) (Q04206 whole entry): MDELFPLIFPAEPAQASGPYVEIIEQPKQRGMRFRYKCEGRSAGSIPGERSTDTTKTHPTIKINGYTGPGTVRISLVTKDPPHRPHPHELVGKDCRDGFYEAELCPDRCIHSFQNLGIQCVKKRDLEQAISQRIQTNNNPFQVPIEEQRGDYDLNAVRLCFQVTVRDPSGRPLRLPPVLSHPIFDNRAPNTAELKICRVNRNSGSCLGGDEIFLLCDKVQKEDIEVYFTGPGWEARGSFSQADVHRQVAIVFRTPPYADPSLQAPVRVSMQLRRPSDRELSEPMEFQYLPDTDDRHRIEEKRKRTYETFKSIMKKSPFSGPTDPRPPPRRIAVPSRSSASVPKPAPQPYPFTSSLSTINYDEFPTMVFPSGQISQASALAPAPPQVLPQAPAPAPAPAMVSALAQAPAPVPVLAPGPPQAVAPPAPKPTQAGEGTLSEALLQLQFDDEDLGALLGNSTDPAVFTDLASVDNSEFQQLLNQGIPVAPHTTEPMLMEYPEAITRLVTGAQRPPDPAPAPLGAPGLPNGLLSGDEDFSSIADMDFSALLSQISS

p50 = biological target: T3, p50 (Homo sapiens, UniProt P19838); assay: TransAM NF-κB Family DNA Binding ELISA, p50; conditions: p50 binding IC50 (uM), cells without % sign
T3 sequence (P19838 1-433 limits assumed): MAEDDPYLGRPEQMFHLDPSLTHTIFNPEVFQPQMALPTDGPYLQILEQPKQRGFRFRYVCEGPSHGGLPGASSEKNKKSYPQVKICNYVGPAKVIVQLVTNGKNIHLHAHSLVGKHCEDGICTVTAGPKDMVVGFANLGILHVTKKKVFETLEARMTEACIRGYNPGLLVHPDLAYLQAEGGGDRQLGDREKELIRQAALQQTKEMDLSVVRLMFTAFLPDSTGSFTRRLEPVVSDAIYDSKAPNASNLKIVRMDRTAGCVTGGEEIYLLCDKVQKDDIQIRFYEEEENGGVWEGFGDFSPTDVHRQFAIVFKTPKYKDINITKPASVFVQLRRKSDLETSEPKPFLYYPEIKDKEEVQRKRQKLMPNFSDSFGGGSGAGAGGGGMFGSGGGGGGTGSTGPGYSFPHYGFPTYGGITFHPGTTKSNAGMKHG
Procedure: as §3

IC50 (NF-κB [1]; 2 hours pre-treatment, 20 ng/ml TNF-α 18 hours, median of three experiments ± standard error, read-out: median IC50, expression of the luciferase gene) [µM] | IC50 (NF-κB [3]; 2 hours pre-treatment, 20 ng/ml TNF-α 18 hours, median of three experiments ± standard error, read-out: median IC50, expression of the Green fluorescent protein gene) [µM] | Structure (SMILES) | EC50 (NF-κB [1]) [µM] | EC50 [2] [µM] | IC50 (c-Rel) [µM] | IC50 (p52) [µM] | EC50 (NF-κB [3]) [µM] | EC50 [4] [µM] | inhibition of p65 (RelA) binding to DNA, comparison (p65 (RelA); FIG. 7, canonical pathway) | IC50 (p65 (RelA)) [µM] | IC50 (p50) [µM] | decrease in downstream PGE2 synthesis ([2]; LPS stimulated, FIG. 5A) | inhibition of IL-6 ([4]; LPS stimulated RAW264.7, FIG. 5B)
 |  | O=C(NC1=CC(=O)C2OC2C1O)c1cc2ccccc2nc1O (racemic) [Example 2, (±)-2-hydroxy-N-(2-hydroxy-5-oxo-7-oxabicyclo[4.1.0]hept-3-en-3-yl)quinoline-3-carboxamide] | 4.1 | 1.8 | 2.1 | 6 | 0.21 | 0.24 | more potently than DHMEQ and parthenolide | 1.4 | 2.1 |  | 
16.2 ± 1.1 | 6.2 ± 0.5 | O=C(NC1=CC(=O)C2OC2C1O)c1cccnc1O (racemic) [Example 1, (±)-2-hydroxy-N-(2-hydroxy-5-oxo-7-oxabicyclo[4.1.0]hept-3-en-3-yl)nicotinamide] | 6.2 | 6.9 | 4.6 | 13 | 6.2 | 6.5 |  | 2.2 | 26 | dose dependent | inhibited in a dose dependent manor
